# Reference: US12663562B2, “Polysaccharide hydrogel optical fibers and their fabrication and use” (The Board of Trustees of the Leland Stanford Junior …, priority 2021, dated 2026)
# Tests used:
# Format in all cases: cell-based
# RV122 cancer cells = assay: Optical fiber anti-cancer drug testing (RFP-level transmission, calcein profiling, image quantification); settings: for calcein activity profiling (slope of calcein conversion): RV122 cancer cells after culture with drug; for image quantification of native protein expression (RFP) and calcein metabolization: microscopy validation, RV122 cancer cells
# Procedure: (§1) To validate the possibility of light carrying information upon interaction with fluorescent molecules, 3T3 fibroblasts were stained with two model fluorescent markers of different wavelengths, namely Orange Cell Tracker CMRA and Calcein AM (Invitrogen) according to manufacturer's instructions. Briefly, 3T3 cells in suspension were incubated with each marker for 30 minutes under 37° C., washed with PBS, and introduced in the optical fiber core as described above. Fibers were then fabricated and aligned in the input-output setup as previously described the light source and spectrometer. Output spectra were collected and spectral ratios were obtained by dividing the spectra of fluorescent-tagged cell-laden fibers to those without fluorescent molecules, in order to confirm the presence of transmission dips in agreement with the marker's excitation curves. For performing calcein AM overtime metabolic tracking, 4 cm-long fibers with unstained cells were aligned in the optical readout setup, and 10 μL of a 1:100 Calcein AM solution in CaPBS was added dropwise along the optical fiber's length. The spectral output was then collected every minute for a total of 10 minutes after the beginning of the calcein AM metabolization. The 495 nm normalized transmission values were obtained by normalizing all spectral curves to their maximum and extracting the normalized intensity values as an average of the 493-495 nm window. These were then plotted overtime.
# LNCaP, 22Rv1, and DU145 cells were purchased from the American Type Culture Collection (ATCC; Manassas, VA). All cell lines were authenticated through Stanford Functional Genomics Facility. FUCRW plasmid was a kind gift from Dr. Owen Witte's laboratory at University of California Los Angeles. 22Rv1 and DU145 cells were infected with FUCRW virus expressing red fluorescent protein (RFP). RFP signal was confirmed 72 hours post infection. LNCaP-RFP-Trop2-OV cells expressing RFP and Trop2 oncogene were generated as previously described ^43. All cells were cultured in RPMI medium supplemented with 10% FBS, 4 mM L-glutamine, and 1% penicillin/streptomycin.
# (§2) Spectral fingerprinting tests with the different cell lines were performed by integrating them within optical hydrogel fibers as described in the previous section. Briefly, cancer cells were resuspended in the core material at a density of 10 M/mL and cultured in different conditions, namely control medium, 1.5 μM Cisplatin (Biovision) or 1 μM Staurosporine (Biovision). After 48 h of culture, the living optical fibers were washed twice with PBS to remove media remains that could interfere with optical readouts (e.g., Phenol Red). Before measurement, fibers were placed in a 1 mM CaCl2) solution to facilitate their manipulation and were then aligned in the optical characterization setup with spectrometer connection. RFP-level transmission readouts were immediately obtained from the first output collected, and calcein activity overtime was then tracked by the addition of calcein and spectral recording every minute for 10 minutes, as described in the previous section. […] Both RFP and calcein signals were analyzed in several pictures per replicate via Cell Profiler, in order to compare the relative post-incubation signal intensities to the relative decreases in fiber optics transmission at each specific wavelength instantly (RFP) and overtime (calcein).
# [1] = system: LnCAP-RFP-Trop2-OV cancer cells; assay: Digitalization and quantification of 3D cancer invasive proliferation in living optical fibers (output power, RFP-level transmission)
# Procedure: In order to evaluate the invasive proliferation of encapsulated cancer cells over time and quantify this response through optics upon exposure to different levels of the anti-proliferative drug cisplatin, the core material was modified by blending alginate with GelTrex (Growth-Factor Reduced Basement Membrane, Thermofisher) at a 50:50 ratio. Fibers with Cells were fabricated as described before with a 10 million/mL density and were cultured for 1 week to observe the cancer tissue development and the formation of fiberoid (fiber-shaped organoids) structures. To do so, fibers were incubated with Calcein AM 1:500 (Invitrogen) and Hoechst 33342 1:1000 (Thermo Scientific), washed with PBS and imaged under confocal microscope (Zeiss). As model cell line, we used the RFP-expressing LNCaP-RFP-Trop2-OV due to its aggressiveness and relevance in metastatic events. To then quantify the effect of cisplatin in the impedance of 3D tumor growth, fibers were cultured over a 5-days period under control conditions and increasing concentrations of cisplatin (1.5, 15 and 150 μM). After each time point, fibers were washed twice with CaPBS, briefly dipped in 1 mM CaCl2) and aligned in the optical characterization setup. Two types of immediate readouts were acquired: output power via powermeter reading and spectral response through spectrometer connection. Output power was directly used as an indicator of light attenuation induced by tumor growth and spectral data was processed to extract RFP-level transmission values, as plotted in the maintext. In parallel, fibers were also axially sectioned and imaged in confocal microscope for observing the distribution of cancer cells and aggregates within the fiber structure overtime and validate the fiber optics readouts.
# DU145 cells = assay: Spectral fingerprinting (RFP-level transmission, real-time calcein AM metabolism) of cancer cells in living optical fibers; settings: DU145 cells in fiber core, 48 h culture, 1.5 μM cisplatin or 1 μM staurosporine
# Procedure: as §1
# LNCaP, 22Rv1, and DU145 cells were purchased from the American Type Culture Collection (ATCC; Manassas, VA). All cell lines were authenticated through Stanford Functional Genomics Facility. FUCRW plasmid was a kind gift from Dr. Owen Witte's laboratory at University of California Los Angeles. 22Rv1 and DU145 cells were infected with FUCRW virus expressing red fluorescent protein (RFP). RFP signal was confirmed 72 hours post infection. […]
# as §2, with “Briefly, cancer cells were resuspended in the core material at a density of 10 M/mL and cultured in different conditions, namely control medium, 1.5 μM Cisplatin (Biovision) or 1 μM Staurosporine (Biovision).” left out, “Before measurement, fibers were placed in a 1 mM CaCl2) solution to facilitate their manipulation and were then aligned in the optical characterization setup with spectrometer connection.” left out
Compound,calcein activity profiling (slope of calcein conversion) (RV122 cancer cells),image quantification of native protein expression (RFP) and calcein metabolization (RV122 cancer cells),RFP expression (RFP-level transmission) ([1]; cisplatin 1.5 µM),"cancer growth (optical fiber output power) ([1]; cisplatin 1.5 μM, up to 5 days)",RFP expression (RFP-level transmission) ([1]; cisplatin 15 μM),"cancer growth (optical fiber output power) ([1]; cisplatin 15 μM, up to 5 days)","RFP expression (RFP-level transmission) ([1]; cisplatin 150 μM, after 1 day of culture)","cancer growth / invasive proliferation (optical fiber output power) ([1]; cisplatin 150 μM, up to 5 days)",RFP expression (RFP-level transmission) (DU145 cells),capacity of cells to metabolize calcein (calcein AM real-time profile) (DU145 cells),"native fluorescence, RFP-level transmission (RV122 cancer cells; RV122 cancer cells in fibers after drug exposure)"
N.N.[Cl][Pt][Cl] [cisplatin],decrease in the slope,moderate effect,some effect in the protein's expression by day 5,no significant impact,noticeable effect after day 3,prevented considerable growth after 3 days,significant decrease in expression,efficiently inhibited the invasive proliferation,little impact,little impact,
CN[C@@H]1C[C@H]2O[C@@](C)([C@@H]1OC)n1c3ccccc3c3c4c(c5c6ccccc6n2c5c31)C(=O)NC4 [staurosporine],no longer possible to observe metabolic calcein conversion,more prominent effects,,,,,,,significant reduction in RFP expression,drastic inhibition,significant decrease in fluorescent
